Test results published in the supplement of paper PMC12350171.

Tests used:
[1] = system: Bacteroides fragilis NT; assay: IC25 growth inhibition; higher = less potent
Summary of the method: (§1)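 Under anaerobic conditions, OD578 was read hourly in a plate reader for at least three biological replicates of monocultures grown overnight in mGAM. Each culture started at an OD578 of 0.01 in pre-reduced plates holding twofold drug dilutions and 1% DMSO (or water). IC25 was reported as a tested interval: the lowest concentration where the monotonic median area under the growth curve dropped below the cutoff. That cutoff was 0.75.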

[2] = system: Bacteroides thetaiotaomicron; assay: IC25 growth inhibition; higher = less potent
Summary of the method: as §1

[3] = system: Bacteroides uniformis; assay: IC25 growth inhibition; higher = less potent
Summary of the method: as §1

[4] = system: Bacteroides vulgatus; assay: IC25 growth inhibition; higher = less potent
Summary of the method: as §1

[5] = system: Clostridium bolteae; assay: IC25 growth inhibition; higher = less potent
Summary of the method: as §1

[6] = system: Clostridium perfringens; assay: IC25 growth inhibition; higher = less potent
Summary of the method: as §1

[7] = system: Clostridium ramosum; assay: IC25 growth inhibition; higher = less potent
Summary of the method: as §1

[8] = system: Clostridium saccharolyticum; assay: IC25 growth inhibition; higher = less potent
Summary of the method: as §1

[9] = system: Collinsella aerofaciens; assay: IC25 growth inhibition; higher = less potent
Summary of the method: as §1

[10] = system: Coprococcus comes; assay: IC25 growth inhibition; higher = less potent
Summary of the method: as §1

[11] = system: Dorea formicigenerans; assay: IC25 growth inhibition; higher = less potent
Summary of the method: as §1

[12] = system: Escherichia coli ED1a; assay: IC25 growth inhibition; higher = less potent
Summary of the method: as §1

[13] = system: Eubacterium rectale; assay: IC25 growth inhibition; higher = less potent
Summary of the method: as §1

[14] = system: Fusobacterium nucleatum subsp. Nucleatum; assay: IC25 growth inhibition; higher = less potent
Summary of the method: as §1

[15] = system: Parabacteroides merdae; assay: IC25 growth inhibition; higher = less potent
Summary of the method: as §1

[16] = system: Roseburia intestinalis; assay: IC25 growth inhibition; higher = less potent
Summary of the method: as §1

[17] = system: Ruminococcus gnavus; assay: IC25 growth inhibition; higher = less potent
Summary of the method: as §1

[18] = system: Salmonella enterica typhimurium; assay: IC25 growth inhibition; higher = less potent
Summary of the method: as §1

[19] = system: Shigella flexneri; assay: IC25 growth inhibition; higher = less potent
Summary of the method: as §1

[20] = system: Streptococcus parasanguinis; assay: IC25 growth inhibition; higher = less potent
Summary of the method: as §1

[21] = system: Streptococcus salivarius; assay: IC25 growth inhibition; higher = less potent
Summary of the method: as §1

[22] = system: Vibrio cholerae; assay: IC25 growth inhibition; higher = less potent
Summary of the method: as §1

[23] = system: Yersinia enterocolitica WA-314; assay: IC25 growth inhibition; higher = less potent
Summary of the method: as §1

[24] = system: Yersinia pseudotuberculosis; assay: IC25 growth inhibition; higher = less potent
Summary of the method: as §1

[25] = system: Com21 synthetic gut community; assay: community biomass OD578 after 24 h drug treatment relative to untreated (fraction of untreated control); higher = more community growth; conditions: community: Com21 (Com20 + E. coli ED1a)
Experimental: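 Com21 (Com20 plus E. coli ED1a) was treated with drug for 24 h under anaerobic conditions in mGAM. Community OD578 was then measured and normalised to untreated Com21; mean of 3 biological replicates.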

[26] = drug pretreatment concentration 10 µM
[27] = drug pretreatment concentration 20 µM
[28] = drug pretreatment concentration 40 µM
[29] = drug pretreatment concentration 80 µM
[30] = drug pretreatment concentration 160 µM
[31] = drug pretreatment concentration 2.5 µM
[32] = drug pretreatment concentration 5 µM
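Wherever IC25 growth inhibition is given: lowest concentration where monotonic median growth AUC falls below 0.75 of drug-free control.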

| Structure (SMILES) | IC25 growth inhibition [1] [µM] | IC25 growth inhibition [2] [µM] | IC25 growth inhibition [3] [µM] | IC25 growth inhibition [4] [µM] | IC25 growth inhibition [5] [µM] | IC25 growth inhibition [6] [µM] | IC25 growth inhibition [7] [µM] | IC25 growth inhibition [8] [µM] | IC25 growth inhibition [9] [µM] | IC25 growth inhibition [10] [µM] | IC25 growth inhibition [11] [µM] | IC25 growth inhibition [12] [µM] | IC25 growth inhibition [13] [µM] | IC25 growth inhibition [14] [µM] | IC25 growth inhibition [15] [µM] | IC25 growth inhibition [16] [µM] | IC25 growth inhibition [17] [µM] | IC25 growth inhibition [18] [µM] | IC25 growth inhibition [19] [µM] | IC25 growth inhibition [20] [µM] | IC25 growth inhibition [21] [µM] | IC25 growth inhibition [22] [µM] | IC25 growth inhibition [23] [µM] | IC25 growth inhibition [24] [µM] | community biomass OD578 [25, 26] | community biomass OD578 [25, 27] | community biomass OD578 [25, 28] | community biomass OD578 [25, 29] | community biomass OD578 [25, 30] | community biomass OD578 [25, 31] | community biomass OD578 [25, 32] |
| --- | --- | --- | --- | --- | --- | --- | --- | --- | --- | --- | --- | --- | --- | --- | --- | --- | --- | --- | --- | --- | --- | --- | --- | --- | --- | --- | --- | --- | --- | --- | --- |
| CC(CN1c2ccccc2Sc2ccccc21)N(C)C (stereo not given) [Promethazine] | ≤ 160 | ≤ 80 | > 160 | ≤ 20 | > 160 | ≤ 160 | > 160 | > 160 | > 160 | ≤ 160 | ≤ 160 | > 160 | ≤ 160 | > 160 | ≤ 10 | ≤ 160 | ≤ 160 | > 160 | > 160 | > 160 | ≤ 160 | ≤ 160 | > 160 | ≤ 160 | 0.987 | 1.01 | 0.99 | 0.991 | 0.949 |  |  |
| CNCCCC1c2ccccc2C=Cc2ccccc21 [Protriptyline] | > 160 | ≤ 80 | ≤ 160 | ≤ 40 | > 160 | > 160 | > 160 | > 160 | > 160 | > 160 | > 160 | > 160 | > 160 | ≤ 160 | > 160 | > 160 | > 160 | > 160 | > 160 | > 160 | > 160 | > 160 | ≤ 160 | > 160 | 0.995 | 1.02 | 1.01 | 0.991 | 0.956 |  |  |
| O=C1NCCN1CCN1CCC(c2cn(-c3ccc(F)cc3)c3ccc(Cl)cc23)CC1 [Sertindole] | ≤ 40 | ≤ 40 | ≤ 20 | ≤ 20 | ≤ 80 | ≤ 80 | ≤ 80 | ≤ 40 | ≤ 40 | ≤ 80 | ≤ 20 | > 160 | ≤ 20 | ≤ 40 | ≤ 40 | ≤ 20 | ≤ 40 | > 160 | > 80 | ≤ 80 | ≤ 20 | ≤ 80 | > 80 | ≤ 160 | 1.01 | 0.991 | 0.99 | 0.786 | 0.451 |  |  |
| CCC(C)(C)C(=O)O[C@H]1C[C@@H](C)C=C2C=C[C@H](C)[C@H](CC[C@@H]3C[C@@H](O)CC(=O)O3)[C@H]21 [Simvastatin] | ≤ 40 | ≤ 40 | ≤ 40 | ≤ 20 | > 80 | ≤ 40 | ≤ 40 | ≤ 80 | ≤ 80 | > 80 | ≤ 80 | > 160 | ≤ 20 | > 80 | ≤ 40 | ≤ 20 | ≤ 40 | > 80 | > 80 | ≤ 80 | ≤ 20 | > 80 | > 80 | > 80 |  | 0.99 | 0.946 | 0.844 | 0.687 |  |  |
| CN(N=O)C(=O)N[C@@H](C=O)[C@@H](O)[C@H](O)[C@H](O)CO [Streptozotocin] | ≤ 20 | ≤ 40 | ≤ 40 | ≤ 20 | ≤ 2.5 | > 160 | < 1.25 | < 1.25 | ≤ 10 | ≤ 2.5 | > 160 | ≤ 2.5 | > 160 | < 1.25 | ≤ 20 | < 1.25 | < 1.25 | ≤ 10 | ≤ 2.5 | ≤ 20 | > 160 | ≤ 2.5 | ≤ 2.5 | ≤ 2.5 | 0.909 | 0.921 | 0.872 | 0.859 | 0.889 |  |  |
| CC/C(=C(\c1ccccc1)c1ccc(OCCN(C)C)cc1)c1ccccc1 [Tamoxifen] | > 40 | ≤ 40 | ≤ 40 | > 40 | > 40 | > 40 | > 40 | > 40 | ≤ 40 | > 40 | ≤ 20 | > 40 | ≤ 5 | > 40 | > 40 | ≤ 20 | ≤ 40 | > 40 | > 40 | > 40 | > 40 | > 40 | > 40 | > 40 | 1 | 0.977 | 0.719 |  |  | 1 | 1.01 |
| C[C@]1(Cn2ccnn2)[C@H](C(=O)O)N2C(=O)C[C@H]2S1(=O)=O [Tazobactam] | ≤ 10 | ≤ 20 | ≤ 5 | ≤ 10 | > 160 | ≤ 80 | > 160 | ≤ 80 | ≤ 160 | ≤ 80 | ≤ 20 | ≤ 160 | ≤ 5 | ≤ 20 | ≤ 10 | ≤ 40 | ≤ 160 | ≤ 160 | ≤ 160 | ≤ 40 | ≤ 160 | > 160 | > 160 | > 160 | 0.834 | 0.79 | 0.716 | 0.733 | 0.722 |  |  |
| CCCc1nc2c(C)cc(-c3nc4ccccc4n3C)cc2n1Cc1ccc(-c2ccccc2C(=O)O)cc1 [Telmisartan] | > 160 | > 160 | > 160 | > 160 | > 80 | > 160 | ≤ 40 | > 80 | > 160 | > 80 | > 80 | > 160 | > 80 | > 80 | > 160 | > 160 | > 160 | > 160 | > 40 | > 160 | ≤ 40 | > 40 | > 40 | > 40 | 0.994 | 0.966 | 0.932 | 0.892 | 0.956 |  |  |
| CC(C)(C)c1ccc(C(O)CCCN2CCC(C(O)(c3ccccc3)c3ccccc3)CC2)cc1 (stereo not given) [Terfenadine] | ≤ 80 | ≤ 80 | ≤ 80 | ≤ 40 | ≤ 80 | ≤ 80 | > 80 | ≤ 40 | ≤ 20 | ≤ 80 | ≤ 20 | > 160 | ≤ 80 | ≤ 80 | ≤ 80 | ≤ 10 | ≤ 20 | > 160 | > 80 | ≤ 80 | ≤ 80 | > 40 | > 40 | > 80 | 0.953 | 0.96 | 0.863 | 0.542 | 0.35 |  |  |
| Nc1nc(=S)c2ncn([C@@H]3O[C@H](CO)[C@@H](O)[C@H]3O)c2[nH]1 [Thioguanosine] | > 40 | > 40 | > 40 | > 40 | > 40 | > 40 | > 40 | > 40 | > 40 | > 40 | > 40 | ≤ 2.5 | > 40 | > 40 | > 40 | > 40 | > 40 | > 40 | ≤ 2.5 | > 40 | > 40 | > 40 | > 40 | ≤ 20 | 1.02 | 1.05 | 1.01 |  |  | 1.01 | 1.01 |
| NC[C@H]1O[C@H](O[C@H]2[C@H](O)[C@@H](O[C@H]3O[C@H](CO)[C@@H](O)[C@H](N)[C@H]3O)[C@H](N)C[C@@H]2N)[C@H](N)C[C@@H]1O [Tobramycin] | > 160 | > 160 | > 160 | > 160 | > 160 | ≤ 20 | ≤ 160 | ≤ 10 | ≤ 10 | ≤ 40 | > 160 | ≤ 20 | ≤ 20 | ≤ 80 | > 160 | ≤ 10 | ≤ 40 | ≤ 160 | ≤ 40 | ≤ 5 | ≤ 5 | ≤ 160 | ≤ 40 | ≤ 20 | 1.01 | 0.969 | 0.972 | 0.983 | 0.992 |  |  |
| Cc1c(Cl)cccc1Nc1ccccc1C(=O)O [Tolfenamic acid] | ≤ 80 | ≤ 160 | ≤ 160 | ≤ 80 | > 160 | ≤ 160 | ≤ 80 | ≤ 160 | > 160 | ≤ 80 | > 160 | > 160 | > 160 | ≤ 40 | ≤ 40 | > 160 | ≤ 80 | > 160 | > 160 | > 160 | ≤ 160 | ≤ 80 | > 160 | > 160 | 0.991 | 0.971 | 0.962 | 0.923 | 0.864 |  |  |
| CCOC1O[C@H]([C@@H](COCc2ccccc2)OCc2ccccc2)[C@H](OCc2ccccc2)[C@H]1O (stereo not given in full) [Tribenoside] | > 40 | > 40 | > 40 | > 40 | > 80 | > 80 | > 40 | > 80 | > 40 | > 40 | > 20 | > 20 | > 40 | > 40 | > 40 | > 80 | > 40 | > 40 | > 40 | > 40 | > 80 | > 40 | ≤ 160 | > 40 | 0.995 | 0.955 | 0.976 | 0.945 | 0.947 |  |  |
| COc1cc(C(=O)NS(=O)(=O)c2ccccc2C)ccc1Cc1cn(C)c2ccc(NC(=O)OC3CCCC3)cc12 [Zafirlukast] | ≤ 80 | ≤ 80 | ≤ 80 | ≤ 40 | ≤ 80 | ≤ 10 | ≤ 10 | ≤ 80 | ≤ 80 | ≤ 20 | ≤ 40 | > 160 | ≤ 80 | > 80 | ≤ 40 | ≤ 20 | ≤ 20 | > 80 | > 160 | ≤ 20 | ≤ 10 | > 80 | > 80 | > 80 | 0.904 | 0.876 | 0.825 | 0.81 | 0.841 |  |  |
